Data published in patent US20250230155A1 (Vanderbilt University, priority 2021, published 2025).

Target: T1, human mAChR M4 (Homo sapiens, UniProt P08173)
T1 construct: expressed in transfected cells
T1 sequence (P08173 1-479): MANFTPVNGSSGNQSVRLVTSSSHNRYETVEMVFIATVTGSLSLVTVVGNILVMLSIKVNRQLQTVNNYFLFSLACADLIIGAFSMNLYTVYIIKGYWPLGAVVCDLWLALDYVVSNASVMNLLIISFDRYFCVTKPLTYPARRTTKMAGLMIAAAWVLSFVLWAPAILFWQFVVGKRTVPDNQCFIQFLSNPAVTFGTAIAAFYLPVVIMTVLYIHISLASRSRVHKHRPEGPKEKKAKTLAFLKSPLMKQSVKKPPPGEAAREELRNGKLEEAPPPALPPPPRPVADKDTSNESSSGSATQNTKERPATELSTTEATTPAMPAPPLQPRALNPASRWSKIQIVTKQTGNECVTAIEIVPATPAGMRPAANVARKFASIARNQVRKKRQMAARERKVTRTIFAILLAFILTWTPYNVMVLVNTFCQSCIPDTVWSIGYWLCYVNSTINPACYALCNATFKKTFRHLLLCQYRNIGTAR
Assay: mAChR M4 cell-based functional assay (calcium mobilization, CHO-K1 hM4-Gqi5 cells)
Settings: for Emax at 30 µM: CHO-K1, % ACh maximum at 30 μM, human M4; for EC50: positive allosteric modulator activity, increase in the EC20 acetylcholine response, CHO-K1 hM4-Gqi5 cells, read-out: Human M4 EC50
Protocol: Human and rat M4 cDNAs, along with the chimeric G protein Gqi5, were transfected into Chinese hamster ovary (CHO-K1) cells purchased from the American Type Culture Collection using Lipofectamine2000. hM4-Gqi5 cells were grown in Ham's F-12 medium containing 10% heat-inactivated fetal bovine serum (FBS), 20 mM HEPES, 50 μg/mL G418 sulfate, and 500 μg/mL Hygromycin B. rM4-Ggi5 cells were grown in DiVEM containing 10% heat-inactivated FBS, 20 mM THEPES, 400 μμg/mL G418 sulfate, and 500 μμg/mL Hygromycin B.
For high throughput measurement of agonist-evoked increases in intracellular calcium, CHO-K1 cells stably expressing muscarinic receptors were plated in growth medium lacking G418 and hygromycin at 15,000 cells/20 μL/well in Greiner 384-well black-walled, tissue culture (TC)-treated, clear-bottom plates (VWR). Cells were incubated overnight at 37° C. and 5% CO2. The next day, cells were washed using an ELX 405 (BioTek) with assay buffer; the final volume was then aspirated to 20 μL. Next, 20 μL of a […] of Fluo-4/acetoxymethyl ester (Invitrogen, Carlsbad, CA), prepared as a 2.3 mM stock in DMSO and mixed in a 1:1 ratio with 10% (w/v) Pluronic F-127 and diluted in assay buffer, was added to the wells and the cell plates were incubated for 50 min at 37° C. and 5% C02. Dye was removed by washing with the ELX 405 and the final volume was aspirated to 20 μL. Compound master plates were formatted in an 11 point concentration-response curve (CRC) format (1:3 dilutions) in 100% DMSO with a starting concentration of 10 mM using a BRAVO liquid handler (Agilent). Test compound CRCs were then transferred to daughter plates (240 nL) using the Echo acoustic plate reformatter (Labcyte, Sunnyvale, CA) and then diluted into assay buffer (40 μL) to a 2× stock using a Thermo Fisher Combi (Thermo Fisher Scientific, Waltham, MA).
Calcium flux was measured using the Functional Drug Screening System (FDSS) 6000 or 7000 (Hamamatsu Corporation, Tokyo, Japan) as an increase in the fluorescent static ratio. Compounds were applied to cells (20 μL, 2×) using the automated system of the FDSS at 2-4 seconds into the protocol and the data were collected at 1 Hz. At 144 seconds, 10 μL of an EC20 concentration of the muscarinic receptor agonist acetylcholine was added (5×), followed by the addition of 12 μL of an EC80 concentration of acetylcholine at the 230 second time point (5×). Agonist activity was analyzed as a concentration-dependent increase in calcium mobilization upon compound addition. Positive allosteric modulator activity was analyzed as a concentration-dependent increase in the EC20 acetylcholine response. Antagonist activity was analyzed as a concentration-dependent decrease in the EC80 acetylcholine response. Concentration-response curves were generated using a four-parameter logistical equation in XLFit curve fitting software (IDBS, Bridgewater, NJ) for Excel (Microsoft, Redmond, WA) or Prism (GraphPad Software, Inc., San Diego, CA).
Compounds were synthesized as described above. Activity (EC50 and Emax) was determined in the mAChR M4 cell-based functional assay as described above and the data are shown in Table 2. The compound number corresponds to the compound numbers used in Table 1.

## Cc1cc(C(=O)NCc2ccncc2)nnc1N1CCc2ncc(CC(F)(F)F)cc2C1 [Example 581, 5-methyl-N-(pyridin-4-ylmethyl)-6-(3-(2,2,2-trifluoroethyl)-7,8-dihydro-1,6-naphthyridin-6(5H)-yl)pyridazine-3-carboxamide]
  Emax at 30 µM: 96%
  EC50: 60 nM

## Cc1cc(C(=O)N2CC(c3cccnc3)C2)nnc1N1CCc2ncc(-n3cccn3)cc2C1 [Example 535, (6-(3-(1H-pyrazol-1-yl)-7,8-dihydro-1,6-naphthyridin-6(5H)-yl)-5-methylpyridazin-3-yl)(3-(pyridin-3-yl)azetidin-1-yl)methanone]
  Emax at 30 µM: 84%
  EC50: 85 nM

## Cc1cc(C#N)cnc1N1CCc2ncc(N3CCCC3)cc2C1 [Example 1]
  Emax at 30 µM: 86%
  EC50: 286 nM

## Cc1nc(Cl)c(C)c(N2Cc3cc(Nc4ccnn4C)cnc3C(C)(C)C2)n1 [compound 239, 6-(6-chloro-2,5-dimethylpyrimidin-4-yl)-8,8-dimethyl-N-(1-methyl-1H-pyrazol-5-yl)-5,6,7,8-tetrahydro-1,6-naphthyridin-3-amine]
  Emax at 30 µM: 58%
  EC50: 911 nM

## Cc1cc(C#N)cnc1N1CCc2ncc(N3CCO[C@H](c4ccccc4)C3)cc2C1 [Example 375, (R)-5-methyl-6-(3-(2-phenylmorpholino)-7,8-dihydro-1,6-naphthyridin-6(5H)-yl)nicotinonitrile]
  Emax at 30 µM: 85%
  EC50: 1320 nM

## Cc1cnccc1CNC(=O)c1cc(C)c(N2CCc3ncc(N4CCCn5nccc54)cc3C2)nn1 [Example 491, 6-(3-(6,7-dihydropyrazolo[1,5-a]pyrimidin-4(5H)-yl)-7,8-dihydro-1,6-naphthyridin-6(5H)-yl)-5-methyl-N-((3-methylpyridin-4-yl)methyl)pyridazine-3-carboxamide]
  Emax at 30 µM: 91%
  EC50: 15 nM

## COC1CN(C(=O)c2cc(C)c(N3CCc4ncc(CC(F)(F)F)cc4C3)nn2)C1 [Example 589, (3-methoxyazetidin-1-yl)(5-methyl-6-(3-(2,2,2-trifluoroethyl)-7,8-dihydro-1,6-naphthyridin-6(5H)-yl)pyridazin-3-yl)methanone]
  Emax at 30 µM: 99%
  EC50: 173 nM

## Cc1cc(C(=O)N2CC(c3cccnc3)C2)nnc1N1CCc2ncc(N3CCO[C@H](C)C3)cc2C1 [Example 541, (R)-(5-methyl-6-(3-(2-methylmorpholino)-7,8-dihydro-1,6-naphthyridin-6(5H)-yl)pyridazin-3-yl)(3-(pyridin-3-yl)azetidin-1-yl)methanone]
  Emax at 30 µM: 101%
  EC50: 61 nM

## Cc1cc(C(=O)N2CCc3cccnc3C2)nnc1N1CCc2ncc(C(F)(F)F)cc2C1 [Example 500, (5,8-dihydro-1,7-naphthyridin-7(6H)-yl)(5-methyl-6-(3-(trifluoromethyl)-7,8-dihydro-1,6-naphthyridin-6(5H)-yl)pyridazin-3-yl)methanone]
  Emax at 30 µM: 92%
  EC50: 1790 nM

## Cc1cc(F)ncc1-c1cnc2c(c1)CN(c1nnc(C#N)c(C)c1C)CC2 [Example 320, 6-(3-(6-fluoro-4-methylpyridin-3-yl)-7,8-dihydro-1,6-naphthyridin-6(5H)-yl)-4,5-dimethylpyridazine-3-carbonitrile]
  Emax at 30 µM: 54%
  EC50: 2680 nM

## Cc1cc(C#N)cnc1N1CCc2ncc(Oc3cccc(F)c3F)cc2C1 [Example 350, 6-(3-(2,3-difluorophenoxy)-7,8-dihydro-1,6-naphthyridin-6(5H)-yl)-5-methylnicotinonitrile]
  Emax at 30 µM: 84%
  EC50: 547 nM

## Cc1c(C#N)nnc(N2CCc3ncc(Nc4ncc(F)cc4F)cc3C2)c1C [compound 78, 6-[3-[(3,5-difluoro-2-pyridyl)amino]-7,8-dihydro-5H-1,6-naphthyridin-6-yl]-4,5-dimethyl-pyridazine-3-carbonitrile]
  Emax at 30 µM: 65%
  EC50: 324 nM

## Cc1c(C#N)nnc(N2CCc3ncc(-c4ccn(CC5CC5)n4)cc3C2)c1C [Example 10]
CHO-K1
  Emax: 56%
  EC50: 240 nM

## Cc1nc(Cl)c(C)c(N2CCc3ncc(Oc4ccc(F)cc4)cc3C2)n1 [compound 202, 6-(6-chloro-2,5-dimethyl-pyrimidin-4-yl)-3-(4-fluorophenoxy)-7,8-dihydro-5H-1,6-naphthyridine]
  Emax at 30 µM: 78%
  EC50: 921 nM

## Cc1cc(C#N)cnc1N1CCc2ncc(N3CCCn4nc(C5CC5)cc43)cc2C1 [Example 415, 6-(3-(2-cyclopropyl-6,7-dihydropyrazolo[1,5-a]pyrimidin-4(5H)-yl)-7,8-dihydro-1,6-naphthyridin-6(5H)-yl)-5-methylnicotinonitrile]
  Emax at 30 µM: 72%
  EC50: 94 nM

## Cc1cc(C(=O)N2CC(C)(O)C2)nnc1N1CCc2ncc(N3CCCn4nccc43)cc2C1 [Example 547, (6-(3-(6,7-dihydropyrazolo[1,5-a]pyrimidin-4(5H)-yl)-7,8-dihydro-1,6-naphthyridin-6(5H)-yl)-5-methylpyridazin-3-yl)(3-hydroxy-3-methylazetidin-1-yl)methanone]
  Emax at 30 µM: 122%
  EC50: 40 nM

## Cc1c(C#N)nnc(N2CCc3ncc(Nc4ccccc4OC(F)(F)F)cc3C2)c1C [compound 44, 4,5-dimethyl-6-[3-[2-(trifluoromethoxy)anilino]-7,8-dihydro-5H-1,6-naphthyridin-6-yl]pyridazine-3-carbonitrile]
  Emax at 30 µM: 40%
  EC50: 1880 nM

## COc1cc(CNC(=O)c2cnc(N3CCc4ncccc4C3)c(C)c2)ccc1F [compound 152, 6-(7,8-dihydro-5H-1,6-naphthyridin-6-yl)-N-[(4-fluoro-3-methoxy-phenyl)methyl]-5-methyl-pyridine-3-carboxamide]
  Emax at 30 µM: 64%
  EC50: 2120 nM

## Cc1cc(C#N)cnc1N1CCc2ncc(N3CCCn4ccnc43)cc2C1 [Example 411, 6-(3-(6,7-dihydroimidazo[1,2-a]pyrimidin-8(5H)-yl)-7,8-dihydro-1,6-naphthyridin-6(5H)-yl)-5-methylnicotinonitrile]
  Emax at 30 µM: 47%
  EC50: 2250 nM

## Cc1cc(C#N)cnc1N1CCc2ncc(-c3c(C)noc3C)cc2C1 [compound 109, 6-[3-(3,5-dimethylisoxazol-4-yl)-7,8-dihydro-5H-1,6-naphthyridin-6-yl]-5-methyl-pyridine-3-carbonitrile]
  Emax at 30 µM: 90%
  EC50: 167 nM

## COc1cccc2cc(CNC(=O)c3cnc(N4CCc5ncccc5C4)c(C)c3)oc12 [compound 162, 6-(7,8-dihydro-5H-1,6-naphthyridin-6-yl)-N-[(7-methoxybenzofuran-2-yl)methyl]-5-methyl-pyridine-3-carboxamide]
  Emax at 30 µM: 65%
  EC50: 3350 nM

## Cc1cc(C(=O)NCC2CCOCC2)cnc1N1CCc2ncccc2C1 [compound 160, 6-(7,8-dihydro-5H-1,6-naphthyridin-6-yl)-5-methyl-N-(tetrahydropyran-4-ylmethyl)pyridine-3-carboxamide]
  Emax at 30 µM: 51%
  EC50: ≥ 10000 nM

## Cc1c(C#N)nnc(N2CCc3ncc(Nc4ncccc4F)cc3C2)c1C [compound 80, 6-[3-[(3-fluoro-2-pyridyl)amino]-7,8-dihydro-5H-1,6-naphthyridin-6-yl]-4,5-dimethyl-pyridazine-3-carbonitrile]
  Emax at 30 µM: 72%
  EC50: 300 nM
